Results from PubChem BioAssay (NCI).
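Values below derive from 48-hour exposures of cells grown in 96-well plates, with endpoints linearly interpolated between the two concentrations bracketing the appropriate inhibition level. TGI denotes the concentration required for complete inhibition of growth.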

Assays:
Assay in all cases: NCI tumour cell line growth inhibition, 48 h
786-0 renal = system: 786-0 renal
A498 renal = system: A498 renal
A549 NSCLC = system: A549 NSCLC
ACHN renal = system: ACHN renal
BT-549 breast = system: BT-549 breast
CAKI-1 renal = system: CAKI-1 renal
CCRF-CEM leukemia = system: CCRF-CEM leukemia
COLO 205 colon = system: COLO 205 colon
DU-145 prostate = system: DU-145 prostate
EKVX NSCLC = system: EKVX NSCLC
HCC-2998 colon = system: HCC-2998 colon
HCT-116 colon = system: HCT-116 colon
HCT-15 colon = system: HCT-15 colon
HOP-62 NSCLC = system: HOP-62 NSCLC
HOP-92 NSCLC = system: HOP-92 NSCLC
HS 578T breast = system: HS 578T breast
HT29 colon = system: HT29 colon
IGROV1 ovarian = system: IGROV1 ovarian
K-562 leukemia = system: K-562 leukemia
KM12 colon = system: KM12 colon
LOX IMVI melanoma = system: LOX IMVI melanoma
M14 melanoma = system: M14 melanoma
MALME-3M melanoma = system: MALME-3M melanoma
MCF7 breast = system: MCF7 breast
MDA-MB-231 breast = system: MDA-MB-231 breast
MDA-MB-435 = system: MDA-MB-435
MDA-N = system: MDA-N
MOLT-4 leukemia = system: MOLT-4 leukemia
NCI-H226 lung = system: NCI-H226 lung
NCI-H23 lung = system: NCI-H23 lung
NCI-H460 lung = system: NCI-H460 lung
NCI-H522 lung = system: NCI-H522 lung
NCI/ADR-RES ovarian = system: NCI/ADR-RES ovarian
OVCAR-3 ovarian = system: OVCAR-3 ovarian
OVCAR-4 ovarian = system: OVCAR-4 ovarian
OVCAR-5 ovarian = system: OVCAR-5 ovarian
OVCAR-8 ovarian = system: OVCAR-8 ovarian
PC-3 prostate = system: PC-3 prostate
RPMI-8226 leukemia = system: RPMI-8226 leukemia
RXF 393 renal = system: RXF 393 renal
SF-268 CNS = system: SF-268 CNS
SF-295 CNS = system: SF-295 CNS
SK-MEL-2 melanoma = system: SK-MEL-2 melanoma
SK-MEL-28 melanoma = system: SK-MEL-28 melanoma
SK-MEL-5 melanoma = system: SK-MEL-5 melanoma
SK-OV-3 ovarian = system: SK-OV-3 ovarian
SN12C renal = system: SN12C renal
SNB-19 CNS = system: SNB-19 CNS
SNB-75 CNS = system: SNB-75 CNS
SR leukemia = system: SR leukemia
SW-620 colon = system: SW-620 colon
T-47D breast = system: T-47D breast
TK-10 renal = system: TK-10 renal
U251 CNS = system: U251 CNS
UACC-257 melanoma = system: UACC-257 melanoma
UACC-62 melanoma = system: UACC-62 melanoma
UO-31 renal = system: UO-31 renal
HL-60(TB) leukemia = system: HL-60(TB) leukemia
SF-539 CNS = system: SF-539 CNS

Cn1c(O)c(C2=Nc3ccccc3C2=O)c2ccccc21
TGI (786-0 renal): > 100 µM
TGI (A498 renal): > 100 µM
TGI (A549 NSCLC): > 100 µM
TGI (ACHN renal): > 100 µM
TGI (BT-549 breast): > 100 µM
TGI (CAKI-1 renal): > 100 µM
TGI (CCRF-CEM leukemia): > 100 µM
TGI (COLO 205 colon): > 100 µM
TGI (DU-145 prostate): > 100 µM
TGI (EKVX NSCLC): > 100 µM
TGI (HCC-2998 colon): > 100 µM
TGI (HCT-116 colon): > 100 µM
TGI (HCT-15 colon): > 100 µM
TGI (HOP-62 NSCLC): > 100 µM
TGI (HOP-92 NSCLC): > 100 µM
TGI (HS 578T breast): > 100 µM
TGI (HT29 colon): > 100 µM
TGI (IGROV1 ovarian): > 100 µM
TGI (K-562 leukemia): > 100 µM
TGI (KM12 colon): > 100 µM
TGI (LOX IMVI melanoma): > 100 µM
TGI (M14 melanoma): > 100 µM
TGI (MALME-3M melanoma): > 100 µM
TGI (MCF7 breast): > 100 µM
TGI (MDA-MB-231 breast): > 100 µM
TGI (MDA-MB-435): > 100 µM
TGI (MDA-N): > 100 µM
TGI (MOLT-4 leukemia): > 100 µM
TGI (NCI-H226 lung): > 100 µM
TGI (NCI-H23 lung): > 100 µM
TGI (NCI-H460 lung): > 100 µM
TGI (NCI-H522 lung): > 100 µM
TGI (NCI/ADR-RES ovarian): > 100 µM
TGI (OVCAR-3 ovarian): > 100 µM
TGI (OVCAR-4 ovarian): > 100 µM
TGI (OVCAR-5 ovarian): > 100 µM
TGI (OVCAR-8 ovarian): > 100 µM
TGI (PC-3 prostate): > 100 µM
TGI (RPMI-8226 leukemia): > 100 µM
TGI (RXF 393 renal): > 100 µM
TGI (SF-268 CNS): > 100 µM
TGI (SF-295 CNS): > 100 µM
TGI (SK-MEL-2 melanoma): > 100 µM
TGI (SK-MEL-28 melanoma): > 100 µM
TGI (SK-MEL-5 melanoma): > 100 µM
TGI (SK-OV-3 ovarian): > 100 µM
TGI (SN12C renal): > 100 µM
TGI (SNB-19 CNS): > 100 µM
TGI (SNB-75 CNS): > 100 µM
TGI (SR leukemia): > 100 µM
TGI (SW-620 colon): > 100 µM
TGI (T-47D breast): > 100 µM
TGI (TK-10 renal): > 100 µM
TGI (U251 CNS): > 100 µM
TGI (UACC-257 melanoma): > 100 µM
TGI (UACC-62 melanoma): > 100 µM
TGI (UO-31 renal): > 100 µM

COc1ccccc1/C=C1\Sc2scc(-c3ccc(O)c(O)c3)[n+]2C1=O
TGI (786-0 renal): 29.2 µM
TGI (A549 NSCLC): > 100 µM
TGI (ACHN renal): 31 µM
TGI (BT-549 breast): 32.6 µM
TGI (CAKI-1 renal): 29 µM
TGI (CCRF-CEM leukemia): 8.64 µM
TGI (COLO 205 colon): 37.2 µM
TGI (DU-145 prostate): 57.4 µM
TGI (EKVX NSCLC): > 100 µM
TGI (HCC-2998 colon): 31.6 µM
TGI (HCT-116 colon): 31.3 µM
TGI (HCT-15 colon): 30.6 µM
TGI (HL-60(TB) leukemia): 7.11 µM
TGI (HOP-62 NSCLC): > 100 µM
TGI (HOP-92 NSCLC): 38.4 µM
TGI (HS 578T breast): > 100 µM
TGI (HT29 colon): 41.4 µM
TGI (IGROV1 ovarian): 34.2 µM
TGI (K-562 leukemia): 42.1 µM
TGI (KM12 colon): > 100 µM
TGI (LOX IMVI melanoma): 33.5 µM
TGI (M14 melanoma): 30.6 µM
TGI (MCF7 breast): 91.5 µM
TGI (MDA-MB-231 breast): 45 µM
TGI (MDA-MB-435): 86.2 µM
TGI (MDA-N): 67.1 µM
TGI (MOLT-4 leukemia): 38.9 µM
TGI (NCI-H226 lung): > 100 µM
TGI (NCI-H23 lung): 73.5 µM
TGI (NCI-H460 lung): 38.3 µM
TGI (NCI-H522 lung): 24.8 µM
TGI (NCI/ADR-RES ovarian): > 100 µM
TGI (OVCAR-3 ovarian): 36.7 µM
TGI (OVCAR-4 ovarian): 81.3 µM
TGI (OVCAR-5 ovarian): 85.7 µM
TGI (OVCAR-8 ovarian): > 100 µM
TGI (PC-3 prostate): > 100 µM
TGI (RPMI-8226 leukemia): 45.2 µM
TGI (RXF 393 renal): 56.9 µM
TGI (SF-268 CNS): > 100 µM
TGI (SF-295 CNS): > 100 µM
TGI (SF-539 CNS): 55.8 µM
TGI (SK-MEL-2 melanoma): 64.1 µM
TGI (SK-MEL-28 melanoma): 33.1 µM
TGI (SK-MEL-5 melanoma): 44.1 µM
TGI (SK-OV-3 ovarian): 97 µM
TGI (SN12C renal): 67.5 µM
TGI (SNB-19 CNS): > 100 µM
TGI (SR leukemia): 60.3 µM
TGI (SW-620 colon): 31.6 µM
TGI (T-47D breast): 42.5 µM
TGI (TK-10 renal): > 100 µM
TGI (U251 CNS): > 100 µM
TGI (UACC-257 melanoma): 70.5 µM
TGI (UACC-62 melanoma): 32.5 µM
TGI (UO-31 renal): 43.2 µM

COC1CC(OC2C(C)OC(OC3C(C)OC(OC4C(C)OC(O[C@H]5CC[C@@]6(C)C(=CC[C@]7(O)[C@@H]6C[C@@H](OC(=O)/C=C(\C)C(C)C)[C@@]6(C)[C@]7(O)CC[C@@]6(O)C(C)=O)C5)CC4OC)CC3OC)CC2OC)OC(C)C1O (stereo partly drawn)
TGI (786-0 renal): > 12.5 µM
TGI (A549 NSCLC): > 12.5 µM
TGI (ACHN renal): > 12.5 µM
TGI (BT-549 breast): > 12.5 µM
TGI (CAKI-1 renal): > 12.5 µM
TGI (CCRF-CEM leukemia): > 12.5 µM
TGI (COLO 205 colon): > 12.5 µM
TGI (DU-145 prostate): > 12.5 µM
TGI (EKVX NSCLC): > 12.5 µM
TGI (HCC-2998 colon): > 12.5 µM
TGI (HCT-116 colon): > 12.5 µM
TGI (HCT-15 colon): > 12.5 µM
TGI (HL-60(TB) leukemia): > 12.5 µM
TGI (HOP-62 NSCLC): > 12.5 µM
TGI (HOP-92 NSCLC): > 12.5 µM
TGI (HS 578T breast): > 12.5 µM
TGI (HT29 colon): > 12.5 µM
TGI (IGROV1 ovarian): > 12.5 µM
TGI (K-562 leukemia): > 12.5 µM
TGI (KM12 colon): > 12.5 µM
TGI (LOX IMVI melanoma): > 12.5 µM
TGI (M14 melanoma): > 12.5 µM
TGI (MALME-3M melanoma): > 12.5 µM
TGI (MCF7 breast): > 12.5 µM
TGI (MDA-MB-231 breast): > 12.5 µM
TGI (MDA-MB-435): > 12.5 µM
TGI (MDA-N): > 12.5 µM
TGI (MOLT-4 leukemia): > 12.5 µM
TGI (NCI-H226 lung): > 12.5 µM
TGI (NCI-H23 lung): > 12.5 µM
TGI (NCI-H522 lung): > 12.5 µM
TGI (NCI/ADR-RES ovarian): > 12.5 µM
TGI (OVCAR-3 ovarian): > 12.5 µM
TGI (OVCAR-4 ovarian): > 12.5 µM
TGI (OVCAR-5 ovarian): > 12.5 µM
TGI (OVCAR-8 ovarian): > 12.5 µM
TGI (PC-3 prostate): > 12.5 µM
TGI (RPMI-8226 leukemia): > 12.5 µM
TGI (SF-268 CNS): > 12.5 µM
TGI (SF-295 CNS): > 12.5 µM
TGI (SF-539 CNS): > 12.5 µM
TGI (SK-MEL-2 melanoma): > 12.5 µM
TGI (SK-MEL-5 melanoma): > 12.5 µM
TGI (SK-OV-3 ovarian): > 12.5 µM
TGI (SN12C renal): > 12.5 µM
TGI (SNB-19 CNS): > 12.5 µM
TGI (SNB-75 CNS): > 12.5 µM
TGI (SR leukemia): > 12.5 µM
TGI (SW-620 colon): > 12.5 µM
TGI (T-47D breast): > 12.5 µM
TGI (TK-10 renal): > 12.5 µM
TGI (U251 CNS): > 12.5 µM
TGI (UACC-257 melanoma): > 12.5 µM
TGI (UACC-62 melanoma): > 12.5 µM
TGI (UO-31 renal): > 12.5 µM
